Reference: BindingDB's records for doi:10.1016/0006-8993(88)90805-0 (Veterans Administration Medical Center, 1988)

Target: Sodium-dependent serotonin transporter (Rattus norvegicus, UniProt P31652)
Sequence (P31652 whole entry): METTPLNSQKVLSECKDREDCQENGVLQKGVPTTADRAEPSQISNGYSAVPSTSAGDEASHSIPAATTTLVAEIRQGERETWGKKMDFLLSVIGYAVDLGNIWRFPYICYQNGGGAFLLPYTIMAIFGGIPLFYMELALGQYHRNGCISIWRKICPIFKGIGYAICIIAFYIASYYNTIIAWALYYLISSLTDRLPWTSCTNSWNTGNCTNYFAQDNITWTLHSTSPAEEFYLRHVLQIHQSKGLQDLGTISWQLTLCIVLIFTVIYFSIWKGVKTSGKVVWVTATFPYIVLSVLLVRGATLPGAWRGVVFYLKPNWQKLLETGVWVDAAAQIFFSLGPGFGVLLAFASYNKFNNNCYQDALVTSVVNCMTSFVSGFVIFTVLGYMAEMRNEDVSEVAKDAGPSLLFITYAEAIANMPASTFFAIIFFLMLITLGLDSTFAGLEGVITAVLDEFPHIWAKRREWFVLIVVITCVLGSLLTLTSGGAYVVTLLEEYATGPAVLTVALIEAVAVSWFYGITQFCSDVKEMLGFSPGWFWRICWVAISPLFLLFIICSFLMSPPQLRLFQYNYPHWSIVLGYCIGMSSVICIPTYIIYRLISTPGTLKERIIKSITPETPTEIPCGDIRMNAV

## CC[C@@H](CO)NC(=O)[C@@H]1C=C2c3cccc4c3c(cn4C)C[C@H]2N(C)C1
  Ki: 3.7 µM
